Legend:
Test in all cases: relative viability (nuclei count vs DMSO), 5 days (fraction); higher = more cells survive
LU99A = test system: LU99A
Outline: (§1)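 Relative viability was taken as the ratio of nuclei in treated wells to nuclei in vehicle wells. Lung cancer cell lines in 1536-well plates received compounds by pin tool one day after seeding, either one drug alone or a fixed anchor-drug dose plus five library-drug doses (not always all listed) in √10 steps. Nuclei were counted on 4× images after 5 days of treatment, and values are medians of duplicate plates.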

NCI-H358 = test system: NCI-H358
Outline: as §1

COR-L 105 = test system: COR-L 105
Outline: as §1

NCI-H460 = test system: NCI-H460
Outline: as §1

LXF-289 = test system: LXF-289
Outline: as §1

NCI-H2342 = test system: NCI-H2342
Outline: as §1

LCLC-97TM1 = test system: LCLC-97TM1
Outline: as §1

LC-2-ad = test system: LC-2-ad
Outline: as §1

HCC-78 = test system: HCC-78
Outline: as §1

SK-LU-1 = test system: SK-LU-1
Outline: as §1

A-427 = test system: A-427
Outline: as §1

SW 900 = test system: SW 900
Outline: as §1

NCI-H1755 = test system: NCI-H1755
Outline: as §1

EPLC-272H = test system: EPLC-272H
Outline: as §1

UMC-11 = test system: UMC-11
Outline: as §1

HCC-366 = test system: HCC-366
Outline: as §1

NCI-H1944 = test system: NCI-H1944
Outline: as §1

HOP-62 = test system: HOP-62
Outline: as §1

NCI-H1915 = test system: NCI-H1915
Outline: as §1

NCI-H1975 = test system: NCI-H1975
Outline: as §1

NCI-H2085 = test system: NCI-H2085
Outline: as §1

NCI-H2170 = test system: NCI-H2170
Outline: as §1

NCI-H1793 = test system: NCI-H1793
Outline: as §1

## CC(C)Oc1cc(Nc2nc(N[C@@H](C)c3ccc(F)cn3)ncc2Cl)n[nH]1 [AZ23] + COc1cc2c(Oc3ccc(NC(=O)C4(C(=O)Nc5ccc(F)cc5)CC4)cc3F)ccnc2cc1OCCCN1CCOCC1 [Foretinib] (partner 0.25 µM)
LU99A; first compound 0.01 µM
  relative viability: 0.799
LU99A; first compound 0.03162 µM
  relative viability: 0.846
LU99A; first compound 0.3162 µM
  relative viability: 0.872
NCI-H358; first compound 0.01 µM
  relative viability: 0.786
NCI-H358; first compound 0.03162 µM
  relative viability: 0.829
NCI-H358; first compound 0.3162 µM
  relative viability: 0.727
COR-L 105; first compound 0.01 µM
  relative viability: 1.07
COR-L 105; first compound 0.03162 µM
  relative viability: 1.26
COR-L 105; first compound 0.3162 µM
  relative viability: 0.842
NCI-H460; first compound 0.01 µM
  relative viability: 1.12
NCI-H460; first compound 0.03162 µM
  relative viability: 1.11
NCI-H460; first compound 0.3162 µM
  relative viability: 1.05
LXF-289; first compound 0.01 µM
  relative viability: 1.14
LXF-289; first compound 0.03162 µM
  relative viability: 0.977
LXF-289; first compound 0.3162 µM
  relative viability: 0.949
NCI-H2342; first compound 0.01 µM
  relative viability: 0.974
NCI-H2342; first compound 0.03162 µM
  relative viability: 1.07
NCI-H2342; first compound 0.3162 µM
  relative viability: 1.05
LCLC-97TM1; first compound 0.01 µM
  relative viability: 0.922
LCLC-97TM1; first compound 0.03162 µM
  relative viability: 0.928
LCLC-97TM1; first compound 0.3162 µM
  relative viability: 1.01
LC-2-ad; first compound 0.01 µM
  relative viability: 1.07
LC-2-ad; first compound 0.03162 µM
  relative viability: 0.993
LC-2-ad; first compound 0.3162 µM
  relative viability: 1.02
HCC-78; first compound 0.01 µM
  relative viability: 0.588
HCC-78; first compound 0.03162 µM
  relative viability: 0.52
HCC-78; first compound 0.3162 µM
  relative viability: 0.547
SK-LU-1; first compound 0.03162 µM
  relative viability: 0.969
SK-LU-1; first compound 0.3162 µM
  relative viability: 0.821
A-427; first compound 0.01 µM
  relative viability: 1
A-427; first compound 0.03162 µM
  relative viability: 1.05
A-427; first compound 0.3162 µM
  relative viability: 1.07
SW 900; first compound 0.01 µM
  relative viability: 1.04
SW 900; first compound 0.03162 µM
  relative viability: 0.844
SW 900; first compound 0.3162 µM
  relative viability: 0.775
NCI-H1755; first compound 0.01 µM
  relative viability: 0.949
NCI-H1755; first compound 0.03162 µM
  relative viability: 0.94
NCI-H1755; first compound 0.3162 µM
  relative viability: 0.958
EPLC-272H; first compound 0.01 µM
  relative viability: 0.77
EPLC-272H; first compound 0.03162 µM
  relative viability: 0.74
EPLC-272H; first compound 0.3162 µM
  relative viability: 0.676
UMC-11; first compound 0.01 µM
  relative viability: 1.08
UMC-11; first compound 0.03162 µM
  relative viability: 1.15
UMC-11; first compound 0.3162 µM
  relative viability: 0.951
HCC-366; first compound 0.01 µM
  relative viability: 1.13
HCC-366; first compound 0.03162 µM
  relative viability: 0.995
HCC-366; first compound 0.3162 µM
  relative viability: 0.933
NCI-H1944; first compound 0.01 µM
  relative viability: 0.811
NCI-H1944; first compound 0.03162 µM
  relative viability: 0.954
NCI-H1944; first compound 0.3162 µM
  relative viability: 0.864
HOP-62; first compound 0.01 µM
  relative viability: 1.33
HOP-62; first compound 0.03162 µM
  relative viability: 1.15
HOP-62; first compound 0.3162 µM
  relative viability: 1.3
NCI-H1915; first compound 0.01 µM
  relative viability: 1.22
NCI-H1915; first compound 0.03162 µM
  relative viability: 1.14
NCI-H1915; first compound 0.3162 µM
  relative viability: 1.08
NCI-H1975; first compound 0.01 µM
  relative viability: 1.05
NCI-H1975; first compound 0.03162 µM
  relative viability: 1.14
NCI-H1975; first compound 0.3162 µM
  relative viability: 0.99
NCI-H2085; first compound 0.01 µM
  relative viability: 0.848
NCI-H2085; first compound 0.03162 µM
  relative viability: 1.22
NCI-H2085; first compound 0.3162 µM
  relative viability: 1.08
NCI-H2170; first compound 0.01 µM
  relative viability: 1.16
NCI-H2170; first compound 0.03162 µM
  relative viability: 0.98
NCI-H2170; first compound 0.3162 µM
  relative viability: 0.849
NCI-H1793; first compound 0.01 µM
  relative viability: 0.879
NCI-H1793; first compound 0.03162 µM
  relative viability: 0.859
NCI-H1793; first compound 0.3162 µM
  relative viability: 0.713

From the supplement of paper PMC10307832
